Measurements published in publication PMC2928817 (PLoS Pathogens, 2010).

How the values were obtained:
[1] = tested on: A/Osaka/164/2009 (O164s); format: cell-based, 2009 pandemic influenza A (H1N1) virus
[2] = tested on: A/Osaka/180/2009 (O180r); format: cell-based, 2009 pandemic influenza A (H1N1) virus
[3] = tested on: A/Vietnam/HCM9727/2009 (VN9727s); format: cell-based, 2009 pandemic influenza A (H1N1) virus
[4] = tested on: A/Vietnam/HN32060/2009 (VN32060r); format: cell-based, 2009 pandemic influenza A (H1N1) virus
[5] = tested on: A/Osaka/164/2009 (O164s); parameters: species or system 2009 pandemic influenza A (H1N1) virus; conditions: in vivo
[6] = tested on: A/Osaka/180/2009 (O180r); parameters: species or system 2009 pandemic influenza A (H1N1) virus; conditions: in vivo
[7] = tested on: A/Vietnam/HCM9727/2009 (VN9727s); parameters: species or system 2009 pandemic influenza A (H1N1) virus; conditions: in vivo
[8] = tested on: A/Vietnam/HN32060/2009 (VN32060r); parameters: species or system 2009 pandemic influenza A (H1N1) virus; conditions: in vivo

Structure (SMILES)	growth of O164s in the presence of NA inhibitor [1]	growth of O180r in the presence of NA inhibitor [2]	growth of VN9727s in the presence of NA inhibitor [3]	growth of VN32060r in the presence of NA inhibitor [4]	replication of O164s in the lungs of mice [5]	replication of O180r in the lungs of mice [6]	replication of VN9727s in the lungs of mice [7]	replication of VN32060r in the lungs of mice [8]	virus titers of O164s in the lungs of mice [5]	virus titers of VN9727s in the lungs of mice [7]
CCC(CC)O[C@@H]1C=C(C(=O)O)C[C@H](N)[C@H]1NC(C)=O [Oseltamivir carboxylate]	severely impaired	replicated efficiently	severely impaired	replicated efficiently						
NC(=O)c1nc(F)c[nH]c1=O [favipiravir, Favipiravir]					significantly reduced	significantly reduced	significantly reduced	significantly reduced		
[H]/N=C(\N)N[C@H]1C=C(C(=O)O)O[C@@H]([C@H](OC)[C@H](O)COC(=O)CCCCCCC)[C@@H]1NC(C)=O [CS-8958]					significantly reduced	significantly reduced	significantly reduced	significantly reduced		
CCOC(=O)C1=C[C@@H](OC(CC)CC)[C@H](NC(C)=O)[C@@H](N)C1 [oseltamivir, oseltamivir phosphate]						not inhibited		not inhibited	significantly reduced	significantly reduced
CC(=O)N[C@H]1[C@H]([C@H](O)[C@H](O)CO)OC(C(=O)O)=C[C@@H]1N=C(N)N [Zanamivir]	inhibited the replication	inhibited the replication	inhibited the replication	inhibited the replication						
